Measurements taken from EP0056144A1, “Carboxylic acid derivatives, their preparation and use as pharmaceuticals” (Dr. Karl Thomae GmbH, priority 1981, dated 1982).

Legend:
[1] = system: weiblichen und männlichen Mäusen; experiment: Acute toxicity in mice after a single oral dose; format: in vivo; settings: observation at least 7 days; for Tieren gestorben: single oral dose of 1 000 mg/kg; for orientierende Toxizität: single oral dose
Source text: Bei weiblichen und männlichen Mäusen eigener Zucht mit dem Gewicht von 20-26 g wurde die toxische Wirkung der Substanzen nach oraler Gabe (Suspension in 1%iger Methylcellulose) einer einmaligen Dosis bei einer Nachbeobachtungszeit von mindestens 7 Tagen geprüft. Die nachfolgende Tabelle enthält die gefundenen Werte: […]

weiblichen Ratten = experiment: Blood-sugar-lowering effect in fasted female rats (glucose by hexokinase method); format: in vivo; design: key: n.s.: statistisch nicht signifikant; settings: rats fasted 24 h
Source text: Die blutzuckersenkende Wirkung der zu untersuchenden Substanzen wurde an weiblichen Ratten eigener Zucht mit dem Gewicht von 180-220 g geprüft, welche 24 Stunden vor Versuchsbeginn nüchtern gesetzt wurden. Die zu untersuchenden Substanzen wurden unmittelbar vor Versuchsbeginn in 1,5%- iger Methylcellulose suspendiert und per Schlundsonde appliziert.
Die Blutentnahme erfolgte unmittelbar vor Substanzapplikation, sowie 1, 2, 3 und 4 Stunden danach jeweils aus dem retroorbitalen Venenplexus. Hiervon wurden jeweils 50 Fl mit 0,5 ml 0,33 N Perchlorsäure enteiweißt und zentrifugiert. Im überstand wurde Glukose nach der Hexokinase-Methode mit Hilfe eines Analysenphotometers bestimmt. Die statistische Auswertung erfolgte nach dem t-Test nach Student mit p = 0,05 als Signifikanzgrenze.
Die nachfolgende Tabelle enthält die gefundenen Werte in Prozent gegenüber Kontrolle: […]

[2] = 5 mg/kg by gavage, 1 hour after administration
[3] = 5 mg/kg by gavage, 2 hours after administration
[4] = 5 mg/kg by gavage, 3 hours after administration
[5] = 5 mg/kg by gavage, 4 hours after administration

SMILES | Tieren gestorben [1] | orientierende Toxizität [1] | Blutzuckersenkende Wirkung, Werte in Prozent gegenüber Kontrolle (weiblichen Ratten; 25 mg/kg by gavage, 1 hour after administration) | Blutzuckersenkende Wirkung, Werte in Prozent gegenüber Kontrolle (weiblichen Ratten; 25 mg/kg by gavage, 2 hours after administration) | Blutzuckersenkende Wirkung, Werte in Prozent gegenüber Kontrolle (weiblichen Ratten; 25 mg/kg by gavage, 3 hours after administration) | Blutzuckersenkende Wirkung, Werte in Prozent gegenüber Kontrolle (weiblichen Ratten; 25 mg/kg by gavage, 4 hours after administration) | Blutzuckersenkende Wirkung, Werte in Prozent gegenüber Kontrolle (weiblichen Ratten; [2]) | Blutzuckersenkende Wirkung, Werte in Prozent gegenüber Kontrolle (weiblichen Ratten; [3]) | Blutzuckersenkende Wirkung, Werte in Prozent gegenüber Kontrolle (weiblichen Ratten; [4]) | Blutzuckersenkende Wirkung, Werte in Prozent gegenüber Kontrolle (weiblichen Ratten; [5])
CCC(CC)C1CCN(c2ccc(Cl)cc2C(=O)O)CC1 [Substanz F, 5-Chlor-2-[4-(3-pentyl)-piperidino]benzoesäure] | 0 von 10 | > 1 000 mg/kg | – | – | – | – | – | – | – | –
CCNc1ccc(Cl)cc1C(=O)NCCc1ccc(C(=O)O)cc1 [Substanz E, 4-[2-(2-Äthylamino-5-chlor-benzoylamino)-äthyl]benzoesäure, reference compound] | – | – | n.s. | n.s. | n.s. | n.s. | – | – | – | –
C[C@@H]1C[C@H](C)CN(c2ncc(Cl)cc2C(=O)NCCc2ccc(C(=O)O)cc2)C1 [Substanz C] | 0 von 10 | > 1 000 mg/kg | – | – | – | – | -37 Prozent | -39 Prozent | -40 Prozent | -38 Prozent
O=C(O)c1ccc(CCNC(=O)c2cc(Cl)ccc2N2CCC3CCCC2C3)cc1 (stereo not drawn) [Substanz A, 4-[2-[2-(2-Azabicyclo[3.3.1]nonan-2-yl)-5-chlor-benzoyl-amino]-äthyl]benzoesäure] | – | – | – | – | – | – | -42 Prozent | -43 Prozent | -36 Prozent | -32 Prozent
Cc1ccc(N2CCCCCCCC2)c(C(=O)NCCc2ccc(C(=O)O)cc2)c1 [Substanz D, 4-[2-[5-Methyl-2-(octahydro-1H-azonino)-benzoylamino]-äthyl]-benzoesäure] | – | – | – | – | – | – | -30 Prozent | -34 Prozent | -35 Prozent | -26 Prozent
O=C(O)c1ccc(CCNC(=O)c2cc(F)ccc2N2CCCCCCCC2)cc1 [Substanz B, 4-[2-[5-Fluor-2-(octahydro-1H-azonino)-benzoylamino]äthyl]-benzoesäure] | – | – | – | – | – | – | -31 Prozent | -36 Prozent | -34 Prozent | -34 Prozent
